The results in this text go back to publication PMC12491243, “Rational design of indoleamine 2,3-dioxygenase 1 (IDO1) inhibitors featuring 1,2,3-triazole derivatives with enhanced anti-inflammatory and analgesic efficacy” (Frontiers in Pharmacology, 2025).

Common to all, as to assay type: in vivo
In one data set the test system is KM mice. Briefly: Acute toxicity test in KM mice. The note with it: 500 mg/kg via gavage, 14 days. On the procedure:
We evaluated the safety of compound 14e using an acute toxicity test in KM mice. Male mice (8–9 weeks old) were randomly divided into a solvent control group and a 14e-treated group. The control group received an equivalent volume of solvent (5% DMSO +40% PEG300 + 1% Tween-80 + 54% saline) via gavage, while the treatment group received compound 14e solution (500 mg/kg). Beginning on day 1 after administration, body weight and general appearance were monitored for 14 days. At the end of the study, blood samples were collected to determine serum levels of Alanine Aminotransferase (ALT) and Aspartate Aminotransferase (AST). In addition, representative organs (heart, liver, spleen, lung, and kidneys) were excised, weighed, and used to calculate organ indices (organ index = organ weight/body weight × 100%).
FIGURE 7 Acute toxicity experiments of compound 14e were conducted in mice. (A) The body wight of mice were recorded for 14 days after treatment. (B) The acute toxicity experiments examined the effects of 14e on mouse organs. (C) Effect of acute toxicity experimental studies on blood biochemical indices ALT and AST in mice.

For data set [1], the system named is CFA-induced inflammatory pain model. Briefly: CFA-induced mechanical allodynia, von Frey paw withdrawal frequency. The note with it: CFA mice, 30 mg/kg i.p., 0.07 g and 0.4 g von Frey filaments, ipsilateral side, 12 to 72 h post-CFA. The method, then:
To evaluate the analgesic effects of Compound 14e in vivo, we established an inflammatory pain model using intraplantar injection of CFA. Compound 14e (30 mg/kg) was administered intraperitoneally at 6 h, with subsequent doses at 48 and 72 h after CFA injection. Behavioral assessments, including von Frey testing for mechanical allodynia and heat stimuli for thermal hyperalgesia, were conducted on the injected hind paw at baseline (BL), as well as at 6, 12, 18, 24, 48 and 72 h post-CFA injection. Additionally, flinching and guarding behaviors, indicators of spontaneous pain, were evaluated 72 h after CFA injection. […] (A,B) Evaluation of CFA-induced mechanical allodynia as assessed by withdrawal frequency to 0.07 g (A) and 0.4 g (B) von Frey filaments in mice repetitive treated with 10% DMSO or compound 14e. […] The dosage of compound 14e was determined based on our preliminary experiments. Mechanical hypersensitivity was assessed by measuring paw withdrawal frequency (PWF) as described previously in our reports ([Ma et al., 2021]; [Pan et al., 2021]). The PWF in response to mechanical stimulus was determined using two calibrated von Frey filaments (0.07 and 0.4 g, North Coast Medical Inc., Gilroy, United States). […] The PWF was calculated based on the number of positive responses from the 10 applications ([number of paw withdrawals/10 trials] × 100 = % response frequency).

For the next data set, the system named is Iba1-positive microglia. Briefly: Immunofluorescence of Iba1-positive microglia in spinal dorsal horn of CFA mice. The note with it: 3 days after CFA, 30 mg/kg i.p. On the procedure: Given the critical role of microglial activation in inflammation-mediated responses, we investigated whether Compound 14e could modulate microglial activity in the spinal dorsal horn of mice following Complete Freund’s Adjuvant (CFA) injection. First, we assessed the expression of the microglial marker Iba1 in the L4–L6 segments of the spinal cord.
FIGURE 4 Compound 14e prevented the upregulation of Iba1 in CFA mice.
The mice were anesthetized with isoflurane, and 40 μL of CFA (Sigma-Aldrich) was intraplantarly injected into the mid-plantar surface of their left hind paws. As for the control group, an equivalent volume of normal saline was injected ([Jiang et al., 2018]).
The compound 14e were diluted with 10% DMSO, and were intraperitoneally injected with 30 mg/kg into the mice once a day for 3 days after CFA. The dosage of compound 14e was determined based on our preliminary experiments.
Under anesthesia with 1% pentobarbital sodium (0.1 g/kg, i. p.), mice were perfused intracardially with warm normal saline followed by cold 4% paraformaldehyde (PFA) in 0.1 M phosphate buffer (PB). The whole spinal cord in L4 – L5 segments was rapidly dissected and post-fixed in 4% PFA for 6 h, then cryoprotected by incubation of PB with 20% and 30% sucrose solutions at 4 °C in turn. […] Images were taken with a fluorescence microscope (BX53, Olympus).

As for `O=C1COc2ccc(NC(=O)c3cccc(-c4cn(Cc5c(F)cccc5Cl)nn4)c3)cc2N1` [Compound 14e], in the data set on KM mice, the “acute toxicity, overall” value is reported as “does not cause noticeable toxicity”; the “organ indices (heart, liver, spleen, lung, kidneys)” value is “remained stable”; the “serum ALT level” value is given as “did not significantly affect”; the “serum AST level” value is recorded as “did not significantly affect”. Further, the body weight entry with KM mice (versus solvent control) is recorded as “no significant changes”. In addition, the “mechanical allodynia, paw withdrawal frequency (PWF)” value in data set [1] was “significantly alleviated”. In addition, in the data set on Iba1-positive microglia, the “morphological changes and accumulation of Iba1-positive microglia (immunofluorescence)” value is listed as “notably alleviated”.
